From PMC5839409, “Targeting intracellular B2 receptors using novel cell-penetrating antagonists to arrest growth and induce apoptosis in human triple-negative breast cancer” (Oncotarget, 2018)

Tests used:
MDA-MB-231 cells [1] = experiment: cDNA SuperArray Human Signal Transduction Pathway Finder analysis; format: cell-based; conditions: 10 μM / 3h, relative to untreated controls
Source text: cDNA SuperArray analysis manufacturer ’s instructions (SuperArray Bioscience). For cDNA microarray analysis, equal amounts of cRNA (3
The GEArray Q-series array of Human Signal µg) were biotinylated, then the probes were hybridized Transduction Pathway Finder (catalog OHS-014; onto the membranes containing specific genes for several SuperArray Bioscience) was used to quantify the transduction pathways. After extensive washing, specific expression of 113 genes representative of 18 signal hybridization onto the membranes was detected by transduction pathways. […] A […]
cells were incubated or not with FR173657 (10 µM) in fold change cutoff of ≥1.5 as compared to control cells DMEM for 3 hours at 37°C. At the end of treatments, cells was set to identify regulated genes. were collected, lysed and total RNA was purified using an ArrayGrade Total RNA Isolation kit according to the Supplementary Table 1: Marked gene expression changes in FR173657-treated MDA-MB-231 cells relative to untreated controls
Description GenBank acc. Symbol Fold change
NLR family, apoptosis inhibitory protein NM_004536 NAIP 1,50
Cyclin-dependent kinase inhibitor 1B (p27, Kip1) NM_004064 CDKN1B 1,70
Cyclin-dependent kinase inhibitor 2B (p15, inhibits CDK4) NM_004936 CDKN2B 1,80 Cyclin-dependent kinase inhibitor 2C (p18, inhibits CDK4) NM_078626 CDKN2C 2,20 Caudal type homeobox transcription factor 1 NM_001804 CDX1 1,80
CCAAT/enhancer binding protein (C/EBP), beta NM_005194 CEBPB 1,70 […]
Platelet/endothelial cell adhesion molecule (CD31 antigen) NM_000442 PECAM1 3,90 Nitric oxide synthase 2A (inducible, hepatocytes) NM_000625 NOS2A –1,50 […]
Overall, the data generated from the transcriptional profiling study are, in general, in good agreement with the strong anticancer activity of FR173657 observed in MDA-MB-231 cells.

MDA-MB-231 cells [2] = experiment: Annexin V/PI apoptosis and beta-galactosidase senescence assays; format: cell-based, human; conditions: Annexin V and active caspase-3 positivity 24h; β-galactosidase 72h
Description: The effect of B2RAs on cellular senescence was assessed using the Senescence β-Galactosidase Staining Kit (Cell Signaling). MDA-MB-231 cells were plated at 500 000 cells/well in 6-well plates, and serum-starved right before the beginning of treatments. Cells were treated with and without the B2RAs at the indicated concentrations for 72 h. At the end of treatment, surviving cells were fixed with 2% formaldehyde, 0.2% glutaraldehyde for 15 min at room temperature. Fixed cells were then washed and stained with fresh senescence-associated β-galactosidase stain solution (sodium phosphate buffer, pH 6.0, containing 1mg of X-gal (5-bromo-4-chloro-3-indolyl-β-d-galactopyranoside)/ml 40 mM citric acid, 5 mM potassium ferrocyanide, 5 mM potassium ferricyanide, 150 mM NaCl, 2 mM MgCl2) at 37°C. Staining was detected by light microscopy. As a positive control for senescence, we serum starved porcine cerebral microvascular endothelial cells (pCMVEC) (kindly provided by S Chemtob) for 48 h.
MDA-MB-231 and COS-1 cells were plated at 500,000/well in 6-well plates containing medium (10% FBS/DMEM), and allowed to adhere for about 18 h. On the next day, cells were serum-starved and then treated with and without the B2RAs at the indicated concentrations for 24 h. To assess induction of apoptosis due to treatment, we used the Annexin-V-FLUOS Staining kit (Roche) according to manufacturer’s specifications. Briefly, at the end of treatments, cells were harvested, rinsed and incubated in 100 µl of Annexin-V-FLUOS labeling solution (containing 2 µl of Annexin-V-Fluos reagent and 1 µl of PI (15 µg/ml)) for 15 min at room temperature. Cells were analyzed on a FACSCanto II flow cytometer (BD Biosciences). Early stage apoptosis was measured using annexin V-Fluos (RocheMolecular Biochemicals) in conjunction with PI (Sigma) to distinguish among early apoptosis and late apoptosis/necrosis. Bar diagram showing the distribution of early, late/necrotic cell populations.

Structure (SMILES): CC(=O)Nc1ccc(/C=C/C(=O)NCC(=O)N(C)c2ccc(Cl)c(COc3cccc4ccc(C)nc34)c2Cl)cn1 [FR 173657]
- Fold change BMP4 gene expression (MDA-MB-231 cells [1]): 1,50 fold
- Fold change CCL20 gene expression (MDA-MB-231 cells [1]): 1,50 fold
- Fold change CDKN1B (p27, Kip1) gene expression (MDA-MB-231 cells [1]): 1,70 fold
- Fold change CDKN2B gene expression (MDA-MB-231 cells [1]): 1,80 fold
- Fold change CDKN2C gene expression (MDA-MB-231 cells [1]): 2,20 fold
- Fold change CDX1 gene expression (MDA-MB-231 cells [1]): 1,80 fold
- Fold change CEBPB gene expression (MDA-MB-231 cells [1]): 1,70 fold
- Fold change CTSD gene expression (MDA-MB-231 cells [1]): 1,60 fold
- Fold change CXCL9 gene expression (MDA-MB-231 cells [1]): 1,70 fold
- Fold change EGR1 gene expression (MDA-MB-231 cells [1]): 1,60 fold
- Fold change HOXB1 gene expression (MDA-MB-231 cells [1]): 1,60 fold
- Fold change MMP10 gene expression (MDA-MB-231 cells [1]): 3,50 fold
- Fold change NAIP gene expression (MDA-MB-231 cells [1]): 1,50 fold
- Fold change NOS2A gene expression (MDA-MB-231 cells [1]): –1,50 fold
- Fold change PECAM1 gene expression (MDA-MB-231 cells [1]): 3,90 fold
- Fold change TFRC gene expression (MDA-MB-231 cells [1]): –1,50 fold
- induction of apoptosis / senescence (MDA-MB-231 cells [2]): underwent apoptosis, but not senescence
